Assays:
PIPLC = target: T1, PIPLC (Staphylococcus aureus, UniProt P45723); assay: PIPLC activity of Staphylococcus aureus strains in microplates with two fluorogenic PIPLC substrates; assay type: cell-based; set-up: key to PIPLC activity: +: strains permitting the production of fluorescence at least twice that of the background noise; −: a signal emitted by the medium that is less than the background noise; conditions: microplate, 24 hours at 37° C.; for number of strains that display PIPLC activity in the presence of the substrate: among the nineteen strains of Staphylococcus aureus ATCC tested; for PIPLC activity: substrate 0.4 g/l (4-methylumbelliferyl) or 0.2 g/l (3-chloro) in medium derived from OAA
T1 construct: endogenous in cells; host or cells: 19 Staphylococcus aureus ATCC strains (e.g. ATCC 9144, ATCC 49775) growing in culture medium
T1 sequence (P45723 27-312): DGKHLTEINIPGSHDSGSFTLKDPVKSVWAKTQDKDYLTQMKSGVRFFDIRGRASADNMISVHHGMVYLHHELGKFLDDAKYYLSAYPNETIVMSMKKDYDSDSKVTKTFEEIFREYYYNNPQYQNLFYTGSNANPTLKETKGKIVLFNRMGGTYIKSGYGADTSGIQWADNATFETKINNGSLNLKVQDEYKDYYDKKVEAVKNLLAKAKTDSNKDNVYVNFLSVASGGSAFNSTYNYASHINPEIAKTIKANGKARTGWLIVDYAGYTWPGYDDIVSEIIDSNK
Description: 19 strains of Staphylococcus aureus ATCC are tested for their PIPLC activity in microplates. The tests are performed with two different fluorogenic substrates of PIPLC: 4-methylumbelliferyl-myo-inositol-1-phosphate and 3-chloro-7-hydroxy-4-methylcoumarin myo-inositol-phosphate, added at different concentrations to the constituents of the medium derived from the OAA medium described in example 1.
The strains tested, at an initial concentration of 10^8 (CFU)/ml, are diluted in a tryptone salt broth, so as to obtain a final concentration at 10^3 CFU/ml.
10 μl of this bacterial suspension is added to 200 μl of culture medium. Each strain was incubated for 24 hours at 37° C. with each of the media in the microplate reader marketed by the company TECAN under the name GENios™.
The + signs correspond to the strains permitting the production of fluorescence at least twice that of the background noise, The − signs correspond to a signal emitted by the medium that is less than the background noise.

PC-PLC (lecithinase) = conditions: strains ATCC 33592 and ATCC 700699, 10 CFU per well; 0.4 g/l substrate, pH 7.2, 37° C., 72h, versus uninoculated control medium (FIG. 1)
Description: The dynamics of the PC-PLC activity of two strains of Staphylococcus aureus ATCC 33592 and ATCC 700699 was evaluated in microplates in the presence of the medium given below. Reading of the appearance of fluorescence in each of the various wells of the microplate was then carried out in kinetic conditions.
The medium used is of the following composition, pH 7.2:
10 CFU of Staphylococcus aureus ATCC 33592 and ATCC 700699 were inoculated in the wells of the microplate in the presence of the medium described above. The microplate was then incubated at 37° C. in a TECAN reader to evaluate the PC-PLC activity of the two strains of Staphylococcus aureus in the form of the kinetics of hydrolysis of the 4MU-CP substrate, i.e. appearance of fluorescence.
Measurement of the appearance of fluorescence following hydrolysis of the 4MU-CP substrate was carried out over an incubation time of 72h for the two strains of Staphylococcus aureus tested (STA ATCC 33592 and STA ATCC 700699) versus the uninoculated control medium (baseline).

For `Cc1c(Cl)c(=O)oc2cc(OP(=O)([O-])OC3C(O)C(O)C(O)C(O)C3O)ccc12.[Li+]` (centres unmarked) [3-Chloro-7-hydroxy-4-methylcoumarin myo-inositol-1-phosphate], the “number of strains that display PIPLC activity in the presence of the substrate” value (PIPLC) was 18, the PIPLC activity (PIPLC; strain ATCC 6538) was “+ (strains permitting the production of fluorescence at least twice that of the background noise)” and the PIPLC activity (PIPLC; strain ATCC 9144) was “+ (strains permitting the production of fluorescence at least twice that of the background noise)”. For the same molecule, the PIPLC activity (PIPLC; strain ATCC 12598) was “+ (strains permitting the production of fluorescence at least twice that of the background noise)”, the PIPLC activity (PIPLC; strain ATCC 13150) was “+ (strains permitting the production of fluorescence at least twice that of the background noise)” and the PIPLC activity (PIPLC; strain ATCC 29213) was “+ (strains permitting the production of fluorescence at least twice that of the background noise)”. For the same molecule, the PIPLC activity (PIPLC; strain ATCC 33591) was “+ (strains permitting the production of fluorescence at least twice that of the background noise)”, the PIPLC activity (PIPLC; strain ATCC 33592) was “+ (strains permitting the production of fluorescence at least twice that of the background noise)” and the PIPLC activity (PIPLC; strain ATCC 33593) was “+ (strains permitting the production of fluorescence at least twice that of the background noise)”. The PIPLC activity (PIPLC; strain ATCC 33862) was “+ (strains permitting the production of fluorescence at least twice that of the background noise)”, the PIPLC activity (PIPLC; strain ATCC 43300) was “+ (strains permitting the production of fluorescence at least twice that of the background noise)” and the PIPLC activity (PIPLC; strain ATCC 43866) was “+ (strains permitting the production of fluorescence at least twice that of the background noise)”. For the same molecule, the PIPLC activity (PIPLC; strain ATCC 49775) was “−”, the PIPLC activity (PIPLC; strain ATCC 51153) was “+ (strains permitting the production of fluorescence at least twice that of the background noise)” and the PIPLC activity (PIPLC; strain ATCC 51740) was “+ (strains permitting the production of fluorescence at least twice that of the background noise)”. The PIPLC activity (PIPLC; strain ATCC 700698) was “+ (strains permitting the production of fluorescence at least twice that of the background noise)”, the PIPLC activity (PIPLC; strain ATCC 700699) was “+ (strains permitting the production of fluorescence at least twice that of the background noise)” and the PIPLC activity (PIPLC; strain ATCC 700788) was “+ (strains permitting the production of fluorescence at least twice that of the background noise)”. The PIPLC activity (PIPLC; strain ATCC 700789) was “+ (strains permitting the production of fluorescence at least twice that of the background noise)” and the PIPLC activity (PIPLC; strain CCM 6188) was “+ (strains permitting the production of fluorescence at least twice that of the background noise)”.
With `Cc1cc(=O)oc2cc(OP(=O)(O)OC3C(O)C(O)C(O)C(O)C3O)ccc12` (centres unmarked) [4-Methylumbelliferyl myo-inositol-1-phosphate] the “number of strains that display PIPLC activity in the presence of the substrate” value (PIPLC) was 17, the PIPLC activity (PIPLC; strain ATCC 6538) was “+ (strains permitting the production of fluorescence at least twice that of the background noise)” and the PIPLC activity (PIPLC; strain ATCC 9144) was “+ (strains permitting the production of fluorescence at least twice that of the background noise)”. The PIPLC activity (PIPLC; strain ATCC 12598) was “+ (strains permitting the production of fluorescence at least twice that of the background noise)”, the PIPLC activity (PIPLC; strain ATCC 13150) was “+ (strains permitting the production of fluorescence at least twice that of the background noise)” and the PIPLC activity (PIPLC; strain ATCC 29213) was “+ (strains permitting the production of fluorescence at least twice that of the background noise)”. For the same molecule, the PIPLC activity (PIPLC; strain ATCC 33591) was “+ (strains permitting the production of fluorescence at least twice that of the background noise)”, the PIPLC activity (PIPLC; strain ATCC 33592) was “+ (strains permitting the production of fluorescence at least twice that of the background noise)” and the PIPLC activity (PIPLC; strain ATCC 33593) was “+ (strains permitting the production of fluorescence at least twice that of the background noise)”. For the same molecule, the PIPLC activity (PIPLC; strain ATCC 33862) was “+ (strains permitting the production of fluorescence at least twice that of the background noise)”, the PIPLC activity (PIPLC; strain ATCC 43300) was “+ (strains permitting the production of fluorescence at least twice that of the background noise)” and the PIPLC activity (PIPLC; strain ATCC 43866) was “+ (strains permitting the production of fluorescence at least twice that of the background noise)”. For the same molecule, the PIPLC activity (PIPLC; strain ATCC 49775) was “−”, the PIPLC activity (PIPLC; strain ATCC 51153) was “+ (strains permitting the production of fluorescence at least twice that of the background noise)” and the PIPLC activity (PIPLC; strain ATCC 51740) was “+ (strains permitting the production of fluorescence at least twice that of the background noise)”. For the same molecule, the PIPLC activity (PIPLC; strain ATCC 700698) was “+ (strains permitting the production of fluorescence at least twice that of the background noise)”, the PIPLC activity (PIPLC; strain ATCC 700699) was “+ (strains permitting the production of fluorescence at least twice that of the background noise)” and the PIPLC activity (PIPLC; strain ATCC 700788) was “+ (strains permitting the production of fluorescence at least twice that of the background noise)”. For the same molecule, the PIPLC activity (PIPLC; strain ATCC 700789) was “+ (strains permitting the production of fluorescence at least twice that of the background noise)” and the PIPLC activity (PIPLC; strain CCM 6188) was “−”.
With `Cc1cc(=O)oc2cc(OP(=O)([O-])OCC[N+](C)(C)C)ccc12` [4MU-CP, 4-Methylumbelliferyl choline-phosphate] the “detection of Staphylococcus aureus by hydrolysis of the fluorogenic PC-PLC substrate (appearance of fluorescence)” value (PC-PLC (lecithinase)) was “permits the detection and discrimination of Staphylococcus aureus”.
